In patent US20240392315A1, “COMPOSITION FOR CELL ADDITION” (priority 2021, published 2024):
Like-named read-outs stand apart in the source and are kept apart here.

Legend:
[1] = system: HEK293 cells
[2] = system: HEK293 cells; type: cell-based, human

| SMILES | TFday 3 VCD ([1]; test (5), additive 0.57 v/v %, day 3 after transfection, control 4.17E+06) [cells/mL] | TF day 3 Viability ([1]; test (5), additive 0.57 v/v %, day 3 after transfection, control 78.5) [%] | cell growth and substance production ([1]; when the concentration is low) | improving integrity of the genome in produced AAV2 and genome titer (productivity) ([2]; DMSO, Table 8) | genome titer ([2]; test (5), additive 0.57 v/v %, AAV2 produced in cells, control 2.40E+07) [vg/μL] | genome integrity ([2]; test (5), additive 0.57 v/v %, AAV2 produced in cells, control 53.4) [%] | genome titer ([2]; test (3), additive 0.73 v/v %, AAV2 in cells, 3 days after transfection, control 2.26E+07) [vg/μL] | genome integrity ([2]; test (3), additive 0.73 v/v %, AAV2 in cells, control 51.9) [%] | genome titer ([2]; test (4), additive 0.38 v/v %, AAV2 in cells, control 2.40E+07) [vg/μL] | genome integrity ([2]; test (4), additive 0.38 v/v %, AAV2 in cells, control 53.4) [%] | genome titer ([2]; test (4), additive 1.15 v/v %, AAV2 in cells, control 2.40E+07) [vg/μL] | genome integrity ([2]; test (4), additive 1.15 v/v %, AAV2 in cells, control 53.4) [%] |
| --- | --- | --- | --- | --- | --- | --- | --- | --- | --- | --- | --- | --- |
| C[S+](C)[O-] [DMSO, dimethyl sulfoxide] | 4.58E+06 | 81.5 | improving | effective | 3.35E+07 | 59.3 |  |  |  |  |  |  |
| OCC(O)CO [Glycerol, glycerol] |  |  |  |  |  |  | 4.50E+07 | 58.9 | 2.78E+07 | 55.2 | 3.66E+07 | 58.5 |
